The supplement of paper PMC7661543
± gives the standard deviation of the averaged measurements.

What was measured:
Assay in all cases: relative cell number vs DMSO control (72 h) (% of DMSO); higher = less growth inhibition (more cells)
Conditions in all cases: sgRNA knockout: sgNT
[1] = tested on: MDA-MB-231
Protocol: (§1)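 QMAP-Seq: a pool of 5 breast cancer cell lines (ZR-75-1, SKBR3, HCC-38, MDA-MB-231, BT-20), each carrying 12 doxycycline-inducible Cas9 sgRNA perturbations (11 knockouts plus non-targeting sgNT), was treated with compounds for 72 h at four 10-fold doses (10 nM-10 uM or 1 nM-1 uM range). Barcodes were amplified and sequenced, and cell number was interpolated from 293T spike-in standard curves. The result is expressed as % of the median of DMSO wells. Two biological replicates.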

[2] = tested on: HCC-38
Protocol: as §1

[3] = tested on: ZR-75-1
Protocol: as §1

[4] = tested on: SKBR3
Protocol: as §1

[5] = tested on: BT-20
Protocol: as §1

## CN1CCN(CCOc2cc(OC3CCOCC3)c3c(Nc4c(Cl)ccc5c4OCO5)ncnc3c2)CC1 [Saracatinib]
[1]; 10 nM
  relative cell number: 84.1 ± 37
[1]; 100 nM
  relative cell number: 70.3 ± 5.9
[1]; 1000 nM
  relative cell number: 64.1 ± 5.6
[1]; 10000 nM
  relative cell number: 33.9 ± 17
[2]; 10 nM
  relative cell number: 80.8 ± 18
[2]; 100 nM
  relative cell number: 87 ± 10
[2]; 1000 nM
  relative cell number: 78.8 ± 13
[2]; 10000 nM
  relative cell number: 70.5 ± 12
[3]; 10 nM
  relative cell number: 77.5 ± 1.3
[3]; 100 nM
  relative cell number: 97.6 ± 53
[3]; 1000 nM
  relative cell number: 92.6 ± 28
[3]; 10000 nM
  relative cell number: 48.2 ± 22
[4]; 10 nM
  relative cell number: 85.4 ± 45
[4]; 100 nM
  relative cell number: 95.9 ± 16
[4]; 1000 nM
  relative cell number: 62.9 ± 18
[4]; 10000 nM
  relative cell number: 32.6 ± 8
[5]; 10 nM
  relative cell number: 90.5 ± 32
[5]; 100 nM
  relative cell number: 85.8 ± 15
[5]; 1000 nM
  relative cell number: 73.7 ± 11
[5]; 10000 nM
  relative cell number: 48.3 ± 18

## Cn1cnc2c(F)c(Nc3ccc(Br)cc3Cl)c(C(=O)NOCCO)cc21 [Selumetinib]
[1]; 10 nM
  relative cell number: 88.9 ± 25
[1]; 100 nM
  relative cell number: 74.2 ± 37
[1]; 1000 nM
  relative cell number: 96.3 ± 23
[1]; 10000 nM
  relative cell number: 57.1 ± 36
[2]; 10 nM
  relative cell number: 96.6 ± 6.1
[2]; 100 nM
  relative cell number: 85.3 ± 4.4
[2]; 1000 nM
  relative cell number: 84.4 ± 8.8
[2]; 10000 nM
  relative cell number: 92.3 ± 3.6
[3]; 10 nM
  relative cell number: 71 ± 10
[3]; 100 nM
  relative cell number: 67 ± 25
[3]; 1000 nM
  relative cell number: 67.5 ± 21
[3]; 10000 nM
  relative cell number: 59.2 ± 5.8
[4]; 10 nM
  relative cell number: 97.8 ± 51
[4]; 100 nM
  relative cell number: 90.1 ± 60
[4]; 1000 nM
  relative cell number: 103 ± 8.6
[4]; 10000 nM
  relative cell number: 73.3 ± 5.1
[5]; 10 nM
  relative cell number: 80.6 ± 8.9
[5]; 100 nM
  relative cell number: 67 ± 3.8
[5]; 1000 nM
  relative cell number: 99.2 ± 31
[5]; 10000 nM
  relative cell number: 80.9 ± 20

## CC(C)[C@H](O)C(=O)N[C@@H](C)C(=O)N[C@@H]1C(=O)N(C)CCc2ccccc21 [Semagacestat]
[1]; 10 nM
  relative cell number: 126 ± 5.3
[1]; 100 nM
  relative cell number: 83.5 ± 15
[1]; 1000 nM
  relative cell number: 91.7 ± 11
[1]; 10000 nM
  relative cell number: 96.9 ± 12
[2]; 10 nM
  relative cell number: 107 ± 6.6
[2]; 100 nM
  relative cell number: 107 ± 4.2
[2]; 1000 nM
  relative cell number: 118 ± 3.2
[2]; 10000 nM
  relative cell number: 84.4 ± 1.2
[3]; 10 nM
  relative cell number: 112 ± 22
[3]; 100 nM
  relative cell number: 92 ± 28
[3]; 1000 nM
  relative cell number: 89.7 ± 24
[3]; 10000 nM
  relative cell number: 132 ± 19
[4]; 10 nM
  relative cell number: 112 ± 42
[4]; 100 nM
  relative cell number: 83.1 ± 31
[4]; 1000 nM
  relative cell number: 72.2 ± 6.8
[4]; 10000 nM
  relative cell number: 107 ± 42
[5]; 10 nM
  relative cell number: 92.3 ± 13
[5]; 100 nM
  relative cell number: 86.5 ± 12
[5]; 1000 nM
  relative cell number: 113 ± 9.9
[5]; 10000 nM
  relative cell number: 113 ± 23

## CCCc1nn(C)c2c(=O)[nH]c(-c3cc(S(=O)(=O)N4CCN(C)CC4)ccc3OCC)nc12 [Sildenafil]
[1]; 10 nM
  relative cell number: 114 ± 8.2
[1]; 100 nM
  relative cell number: 85 ± 15
[1]; 1000 nM
  relative cell number: 97.7 ± 22
[1]; 10000 nM
  relative cell number: 57.1 ± 8.9
[2]; 10 nM
  relative cell number: 89.5 ± 15
[2]; 100 nM
  relative cell number: 92.7 ± 4.1
[2]; 1000 nM
  relative cell number: 103 ± 9.7
[2]; 10000 nM
  relative cell number: 124 ± 18
[3]; 10 nM
  relative cell number: 105 ± 9.5
[3]; 100 nM
  relative cell number: 117 ± 58
[3]; 1000 nM
  relative cell number: 86.3 ± 26
[3]; 10000 nM
  relative cell number: 57.6 ± 2.1
[4]; 10 nM
  relative cell number: 82.23 ± 0.8
[4]; 100 nM
  relative cell number: 91.7 ± 25
[4]; 1000 nM
  relative cell number: 62.7 ± 0.37
[4]; 10000 nM
  relative cell number: 68.1 ± 16
[5]; 10 nM
  relative cell number: 95.7 ± 16
[5]; 100 nM
  relative cell number: 110 ± 2.7
[5]; 1000 nM
  relative cell number: 95.2 ± 0.97
[5]; 10000 nM
  relative cell number: 107 ± 3.9

## CCC(C)(C)C(=O)O[C@H]1C[C@@H](C)C=C2C=C[C@H](C)[C@H](CC[C@@H]3C[C@@H](O)CC(=O)O3)[C@H]21 [Simvastatin]
[1]; 10 nM
  relative cell number: 130 ± 20
[1]; 100 nM
  relative cell number: 115 ± 28
[1]; 1000 nM
  relative cell number: 82.6 ± 8.9
[1]; 10000 nM
  relative cell number: 34.2 ± 13
[2]; 10 nM
  relative cell number: 90.5 ± 2.1
[2]; 100 nM
  relative cell number: 96 ± 21
[2]; 1000 nM
  relative cell number: 103 ± 12
[2]; 10000 nM
  relative cell number: 87.5 ± 13
[3]; 10 nM
  relative cell number: 95.6 ± 57
[3]; 100 nM
  relative cell number: 75.2 ± 6
[3]; 1000 nM
  relative cell number: 109 ± 39
[3]; 10000 nM
  relative cell number: 75.6 ± 20
[4]; 10 nM
  relative cell number: 95.7 ± 4.9
[4]; 100 nM
  relative cell number: 60.8 ± 3.1
[4]; 1000 nM
  relative cell number: 113 ± 23
[4]; 10000 nM
  relative cell number: 66.7 ± 15
[5]; 10 nM
  relative cell number: 108 ± 18
[5]; 100 nM
  relative cell number: 72.5 ± 13
[5]; 1000 nM
  relative cell number: 89.7 ± 26
[5]; 10000 nM
  relative cell number: 91.4 ± 19

## N[C@@H](CC(=O)N1CCn2c(nnc2C(F)(F)F)C1)Cc1cc(F)c(F)cc1F [Sitagliptin]
[1]; 10 nM
  relative cell number: 114 ± 63
[1]; 100 nM
  relative cell number: 86.6 ± 14
[1]; 1000 nM
  relative cell number: 113 ± 32
[1]; 10000 nM
  relative cell number: 120 ± 77
[2]; 10 nM
  relative cell number: 106 ± 10
[2]; 100 nM
  relative cell number: 99.2 ± 12
[2]; 1000 nM
  relative cell number: 106 ± 5
[2]; 10000 nM
  relative cell number: 92.2 ± 1.9
[3]; 10 nM
  relative cell number: 118 ± 6.4
[3]; 100 nM
  relative cell number: 84.6 ± 64
[3]; 1000 nM
  relative cell number: 124 ± 34
[3]; 10000 nM
  relative cell number: 96.5 ± 5.2
[4]; 10 nM
  relative cell number: 87.3 ± 2.4
[4]; 100 nM
  relative cell number: 89.5 ± 3.5
[4]; 1000 nM
  relative cell number: 82.6 ± 2.9
[4]; 10000 nM
  relative cell number: 89.8 ± 3.9
[5]; 10 nM
  relative cell number: 107 ± 24
[5]; 100 nM
  relative cell number: 90.6 ± 5.2
[5]; 1000 nM
  relative cell number: 74.2 ± 14
[5]; 10000 nM
  relative cell number: 123 ± 24
